Measured values taken from patent US20230391778A1, “INDOLIN-2-ONE OR PYRROLO -PYRIDIN -2 -ONE DERIVATIVES” (Hoffmann-La Roche Inc., priority 2014, published 2023).

Columns and labels:
[1] = biological target: T1, mouse ENT-1 transporter (Mus musculus, UniProt Q9JIM1); test: Measure of adenosine transport activity (ENT1 adenosine uptake inhibition); assay type: cell-based; conditions: stable cells expressing mouse ENT-1, [2,8-3H]-adenosine 6 nM, 20 min
T1 construct: expressed in transfected cells
T1 sequence (Q9JIM1 1-460): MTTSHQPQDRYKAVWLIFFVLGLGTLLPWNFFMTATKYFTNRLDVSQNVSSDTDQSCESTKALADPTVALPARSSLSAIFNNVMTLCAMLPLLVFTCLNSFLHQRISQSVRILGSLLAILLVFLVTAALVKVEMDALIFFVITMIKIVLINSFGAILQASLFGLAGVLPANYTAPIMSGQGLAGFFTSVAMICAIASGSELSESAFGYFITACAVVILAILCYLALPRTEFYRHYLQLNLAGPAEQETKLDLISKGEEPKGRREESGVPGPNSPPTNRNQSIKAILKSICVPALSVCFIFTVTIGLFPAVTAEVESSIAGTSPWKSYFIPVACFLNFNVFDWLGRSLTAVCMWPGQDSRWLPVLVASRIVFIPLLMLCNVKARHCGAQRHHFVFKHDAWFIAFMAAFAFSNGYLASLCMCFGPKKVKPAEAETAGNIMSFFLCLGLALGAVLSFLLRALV
Procedure, shortened: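 Stable mouse ENT-1 cells, 60,000/well, washed into pH 7.4 Hepes-Tris uptake buffer and incubated at RT with compound (1% DMSO final) for 20 min with shaking. Non-specific uptake defined with 10 μM NBTI; cell-associated radioactivity counted by scintillation after ice-cold washes.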

[2] = tested on: L-687,414-induced hyperlocomotion; test: L-687,414-induced hyperlocomotion; assay type: in vivo, mouse; conditions: Dose ip 30 mg/kg, mice, 50 mg/kg s.c. L-687,414; for inhibition in vivo at 30 mg/kg: Mus musculus
Method: The described compounds of formula I reduce L-687,414-induced hyperlocomotion. This was assessed by using a computerized Digiscan 16 Animal Activity Monitoring System (Omnitech Electronics, Columbus, Ohio) to quantify locomotor activity. Animals were kept under a 12 h light/dark cycle and experiments were performed during the light period. Each activity monitoring chamber consisted of a Plexiglas box (41×41×28 cm; W×L×H) with sawdust bedding on the floor surrounded by invisible horizontal and vertical infrared sensor beams. The test boxes were divided by a Plexiglas cross providing each mouse with 20×20 cm of moving space. Cages were connected to a Digiscan Analyzer linked to a computer that constantly collected the beam status information. Records of photocell beam interruptions for individual animals were taken every 5 min over the duration of the experimental session and the sum of the first 6 periods was used as the final parameter. At least 8 mice were used in each treatment group. Compounds were administered either p.o. 15 min before a s.c. injection of 50 mg/kg of L-687,414, or i.p. at the same time as a s.c. injection of 50 mg/kg of L-687,414. Mice were then transferred from their home cage to the recording chambers for a 15-min habituation phase allowing free exploration of the new environment. Horizontal activity was then recorded for a 30-min time period. The % inhibition of L-687,414-induced hyperlocomotion was calculated according to the equation:
((Veh+L-687,414 horizontal activity−drug+L-687,414 horizontal activity)/Veh+L-687,414 horizontal activity)×100
ID50 values, defined as doses of each compound producing 50% inhibition of L-687,414-induced hyperlocomotion, were calculated by linear regression analysis of a dose-response data using an Excel-based computer-fitting program.
As data was not presupposed to be normally distributed, groups treated with test compounds were statistically compared with the control (vehicle-treated) group using one-tailed Mann Whitney U tests. In statistics, the Mann-Whitney U test (also called the Mann-Whitney-Wilcoxon (MWW) or Wilcoxon rank-sum test) is a non-parametric statistical hypothesis test for assessing whether one of two samples of independent observations tends to have larger values than the other. It is one of the most well-known non-parametric significance tests. […] P values given in table 1 are one-tailed since only decreases in locomotion were expected and tested for (Mann, H. B., Whitney, D. R. (1947), “On a Test of Whether one of Two Random Variables is Stochastically Larger than the Other”, Annals of Mathematical Statistics, 18 (1), 50-60).

Molecule | IC50 [1] [µM] | inhibition in vivo at 30 mg/kg [2] [%] | L-687,414-induced hyperlocomotion Inhibition, ip [%] [2] [%]
Cc1ncc(-c2ccc3c(c2)N(c2cnnc(Cl)c2)C(=O)C3(C)C)cn1 [Example 126, 1-(6-chloropyridazin-4-yl)-3,3-dimethyl-6-(2-methylpyrimidin-5-yl)indolin-2-one] | 2.21 | 74.7 | 
CC(C)c1cn(-c2ccc3c(c2)N(c2ccn(C)n2)C(=O)C3(C)C)cn1 [Example 37, 6-(4-Isopropylimidazol-1-yl)-3,3-dimethyl-1-(1-methylpyrazol-3-yl)indolin-2-one] | 6.75 | 73.8 | 
Cc1ncc(-c2ccc3c(c2)N(c2nc(C)n(C)n2)C(=O)C3(C)C)cn1 [Example 78, 1-(1,5-dimethyl-1H-1,2,4-triazol-3-yl)-3,3-dimethyl-6-(2-methylpyrimidin-5-yl)indolin-2-one] |  | 89.9 | 
Cc1ncc(-c2ccc3c(c2)N(c2ccncc2)C(=O)C3(C)C)cn1 [Example 1, 3,3-Dimethyl-6-(2-methylpyrimidin-5-yl)-1-(pyridin-4-yl)indolin-2-one] | 0.431 | 95.4 | 
Cc1ncc(-c2ccc3c(c2)N(c2cnccn2)C(=O)C3(C)C)cn1 [Example 77, 3,3-dimethyl-6-(2-methylpyrimidin-5-yl)-1-(pyrazin-2-yl)indolin-2-one] | 2.41 | 92.6 | 
Cc1cc(-c2cc3c(cn2)C(C)(C)C(=O)N3c2cnn(C)c2)ccn1 [Example 110, 3,3-dimethyl-1-(1-methyl-1H-pyrazol-4-yl)-6-(2-methylpyridin-4-yl)-1H-pyrrolo[3,2-c]pyridin-2(3H)-one] |  | 58.5 | 
Cc1ncc(-c2ccc3c(c2)N(c2ccnnc2)C(=O)C3(C)C)cn1 [Example 120, 3,3-dimethyl-6-(2-methylpyrimidin-5-yl)-1-(pyridazin-4-yl)indolin-2-one] | 3.6 | 90.8 | 
Cc1ncc(-c2ccc3c(c2)N(c2ccn(C)n2)C(=O)C3(C)C)o1 [Example 49, 3,3-Dimethyl-6-(2-methyloxazol-5-yl)-1-(1-methylpyrazol-3-yl)indolin-2-one] |  | 47.1 | 
Cc1cc(N2C(=O)C(C)(C)c3ccc(-n4cnc(C)c4)cc32)ccn1 [Example 22, 3,3-Dimethyl-6-(4-methylimidazol-1-yl)-1-(2-methyl-4-pyridyl)indolin-2-one] |  | 63.8 | 
Cc1cc(-c2cc3c(cn2)C(C)(C)C(=O)N3c2ccc(C)nn2)ccn1 [Example 109, 3,3-dimethyl-1-(6-methylpyridazin-3-yl)-6-(2-methylpyridin-4-yl)-1H-pyrrolo[3,2-c]pyridin-2(3H)-one] |  | 51.3 | 
Cc1ncc(-c2ccc3c(c2)N(c2cn(C)cn2)C(=O)C3(C)C)cn1 [Example 2, 3,3-Dimethyl-1-(1-methyl-1H-imidazol-4-yl)-6-(2-methylpyrimidin-5-yl)indolin-2-one] | 0.613 | 95.7 | 
Cc1cc(-c2cc3c(cn2)C(C)(C)C(=O)N3c2cn(C)cn2)ccn1 [Example 111, 3,3-dimethyl-1-(1-methyl-1H-imidazol-4-yl)-6-(2-methylpyridin-4-yl)-1H-pyrrolo[3,2-c]pyridin-2(3H)-one] |  | 51 | 
Cc1ncc(-c2ccc3c(c2)N(c2ncc(C)s2)C(=O)C3(C)C)cn1 [Example 125, 3,3-dimethyl-6-(2-methylpyrimidin-5-yl)-1-(5-methylthiazol-2-yl)indolin-2-one] | 0.132 | 52 | 
Cc1ncc(-c2ccc3c(c2)N(c2ncc(Cl)cn2)C(=O)C3(C)C)cn1 [Example 113, 1-(5-chloropyrimidin-2-yl)-3,3-dimethyl-6-(2-methylpyrimidin-5-yl)indolin-2-one] | 0.203 | 91.1 | 
Cc1ncc(-c2ccc3c(c2)N(c2ccc(C)c(C)n2)C(=O)C3(C)C)cn1 [Example 70, 1-(5,6-dimethylpyridin-2-yl)-3,3-dimethyl-6-(2-methylpyrimidin-5-yl)indolin-2-one] | 0.34 | 93.5 | 
1-(2-cyclopropylpyrimidin-5-yl)-3,3-dimethyl-6-(2-methylpyrimidin-5-yl)indolin-2-one [Example 116] | 0.23 |  | 92.8
Cc1ncc(-c2cc3c(cn2)C(C)(C)C(=O)N3c2ccn(C)n2)cn1 [Example 16, 3,3-Dimethyl-1-(1-methyl-1H-pyrazol-3-yl)-6-(2-methylpyrimidin-5-yl)-1H-pyrrolo[3,2-c]pyridin-2(3H)-one] |  | 78.3 | 
Cc1ncc(-c2ccc3c(c2)N(c2ccn(C)n2)C(=O)C3(C)C)cn1 [Example 4, 3,3-Dimethyl-1-(1-methyl-1H-pyrazol-3-yl)-6-(2-methylpyrimidin-5-yl)indolin-2-one] | 0.951 | 93.4 | 
Cc1ccc(N2C(=O)C(C)(C)c3ccc(-c4nnc(C)o4)cc32)cn1 [Example 34, 3,3-Dimethyl-6-(5-methyl-1,3,4-oxadiazol-2-yl)-1-(6-methyl-3-pyridyl)indolin-2-one] |  | 59.7 | 
Cc1ncc(-c2ccc3c(c2)N(c2ccnc(F)c2)C(=O)C3(C)C)cn1 [Example 45, 1-(2-Fluoropyridin-4-yl)-3,3-dimethyl-6-(2-methylpyrimidin-5-yl)indolin-2-one] | 1 | 80.5 | 
Cc1ncc(-c2ccc3c(c2)N(c2ccncn2)C(=O)C3(C)C)cn1 [Example 93, 3,3-dimethyl-6-(2-methylpyrimidin-5-yl)-1-(pyrimidin-4-yl)indolin-2-one] |  | 92.4 | 
Cc1ncc(-c2ccc3c(c2)N(c2ncn(C)n2)C(=O)C3(C)C)cn1 [Example 82, 3,3-dimethyl-1-(1-methyl-1H-1,2,4-triazol-3-yl)-6-(2-methylpyrimidin-5-yl)indolin-2-one] |  | 89.6 | 
Cc1ncc(-c2ccc3c(c2)N(c2nccnc2C)C(=O)C3(C)C)cn1 [Example 127, 3,3-dimethyl-1-(3-methylpyrazin-2-yl)-6-(2-methylpyrimidin-5-yl)indolin-2-one] | 7.73 | 72.8 | 
Cc1ncc(-c2ccc3c(c2)N(c2cncc(C4CC4)n2)C(=O)C3(C)C)cn1 [Example 97, 1-(6-cyclopropylpyrazin-2-yl)-3,3-dimethyl-6-(2-methylpyrimidin-5-yl)indolin-2-one] | 0.102 | 78.5 | 
3,3-dimethyl-1,6-bis(5-methylpyrazin-2-yl)indolin-2-one [Example 91] | 1.82 |  | 73.7
Cc1cc(N2C(=O)C(C)(C)c3ccc(-c4cnc(C)nc4)cc32)sn1 [Example 124, 3,3-dimethyl-1-(3-methylisothiazol-5-yl)-6-(2-methylpyrimidin-5-yl)indolin-2-one] | 0.226 | 53.3 | 
Cc1ncc(-c2ccc3c(c2)N(c2cnc(C4CC4)cn2)C(=O)C3(C)C)cn1 [Example 95, 1-(5-cyclopropylpyrazin-2-yl)-3,3-dimethyl-6-(2-methylpyrimidin-5-yl)indolin-2-one] | 0.047 | 76.9 | 
